Paper PMC8791944, “GLUT3 inhibitor discovery through in silico ligand screening and in vivo validation in eukaryotic expression systems” (Scientific Reports, 2022)

Legend:
Assay type in all cases: cell-based
[1] = test system: A549 (lung cancer) cells; assay: MTT cancer cell viability assay, A549; details: A549, 48 h
Procedure: (§1) A possible therapeutic application of GLUT3 inhibitors is in oncology, especially for cancers in which GLUT3 is a poor prognosis marker. We tested the effect of GLUT3 inhibitors on the cell viability of several different cancer lines: myeloid leukemia (HL60 and U937), lung cancer (A549), colorectal adenocarcinoma (Caco-2), breast cancer (MCF7), hepatocellular carcinoma (HepG2), and choriocarcinoma (BeWo) cells. GLUT3 inhibitors, at five different concentrations, ranging from 2 to 100 µM, were incubated with cancer cells for 48 h. Then, cell viability was assessed with the MTT assay. […] G3iC and G3iD also affected the leukemia cell lines but at double the concentrations of G3iB and G3iE. […] G3iB had some cytotoxic activity (CC50 < 50 µM) against the highest number of cancer cell lines (HL60, U937, A549, HepG2, and MCF7).
(§2) Cancer cell viability in the presence of GLUT3 inhibitors was assayed using the MTT Cell Viability Kit (Biotium Inc, Freemont, CA) according to manufacturer’s instructions. Cancer cells were grown in the corresponding medium, at 37 °C and 5% CO2 in a humidified incubator. The media (Gibco) for leukemia cells (HL60 and U937), A549, MCF7, BeWo, and HepG2 cells were RPMI 1640, Ham’s F-12K, DMEM:F-12, Ham’s F-12K, and EMEM, respectively, all supplemented with 10% (v/v) fetal bovine serum (HyClone). Caco-2 cells were grown in EMEM supplemented with 20% (v/v) fetal bovine serum. Cells were detached from the culture flasks with Accutase (Innovative Cell Technologies, Inc., San Diego, CA) according to manufacturer’s instructions. Cells were seeded in 96-well plates, at a density of ~ 30,000 cells/well (in 100 µl fresh media) and incubated with varying concentrations of GLUT3 inhibitors for 48 h, at 37 °C and 5% CO2 in a humidified incubator. The inhibitors were dissolved in DMSO, at 100× the final concentration, so that 1 µl of the stock inhibitor concentration was added per well, making the final DMSO concentration 1% (v/v). Therefore, controls for 100% cell viability were cells with 1% (v/v) DMSO without the inhibitors. Controls for 0% cell viability were cells treated with 0.3% (v/v) Tween 20. For MTT assay, 10 µl of MTT reagent was added in each well followed by 3–4 h incubation at 37 °C and 5% CO2 in a humidified incubator. After thoroughly mixing in 200 µl DMSO in each well, the plates were put into a plate reader (BioTek Synergy H1), and the absorbances at 570 nm and 630 nm were measured with Gen5 program (BioTek Inc.). The experimental values represent Abs570 nm-Abs630 nm with each inhibitor condition and control being the average of three wells.
(§3) Supplementary Figure S8. Effect of GLUT3 inhibitors on the viability of various cancer cell lines. Cell viability was determined by MTT assay in A549 (lung cancer), BeWo (choriocarcinoma), Caco-2 (colon cancer), HepG2 (liver cancer), HL-60 (leukemia), MCF7 (breast cancer), and U937 (histiocytic lymphoma) cell lines. GLUT3 inhibitors at concentrations of 2, 5, 10, 20, 50, and 100 µM were incubated with cells in 96-well plates for 48 hours before the addition of the MTT reagent.

[2] = test system: HL60 leukemia cells; assay: MTT cancer cell viability assay, HL60; details: HL60, 48 h
Procedure: as §1, §2, §3

[3] = test system: U937 leukemia cells; assay: MTT cancer cell viability assay, U937; details: U937, 48 h
Procedure: as §1, §2, §3

Structure (SMILES): CC(=O)Nc1ccc(S(=O)(=O)Nc2ccc(Nc3cc(N(C)C)nc(C)n3)cc2)cc1 [G3iA, N-(4-{[(4-{[6-(dimethylamino)-2-methylpyrimidin-4-yl]amino}phenyl)amino]sulfonyl}phenyl)acetamide]
- CC50 ([1]; Homo sapiens): > 100 µM
- CC50 ([2]; Homo sapiens, HL-60, 48 h): > 100 µM
- CC50 ([3]; Homo sapiens, U-937, 48 h): > 100 µM

Structure (SMILES): Cc1cccnc1OC1CCN(c2cc(N3CCCC3CO)ncn2)CC1 (stereo not shown) [G3iC]
- CC50 [1]: 21.6 ± 2.5 µM
- CC50 ([1]; Homo sapiens): ~22 µM
- CC50 ([2]; Homo sapiens, HL-60, 48 h): 31.1 ± 3.8 µM
- CC50 ([3]; Homo sapiens, U-937, 48 h): > 50 µM

Structure (SMILES): Cc1cc(NC(=O)CCC2Cc3ccccc3NC2=O)nc(-c2ccccc2)n1 (stereo not shown) [G3iD]
- CC50 ([1]; Homo sapiens): 32.5 ± 14.2 µM
- CC50 ([2]; Homo sapiens, HL-60, 48 h): 28.7 ± 2.1 µM
- CC50 ([3]; Homo sapiens, U-937, 48 h): > 50 µM

Structure (SMILES): O=C(Nc1cccc(Cl)c1)c1cccc(NC(=O)c2cccc([N+](=O)[O-])c2)c1 [G3iE, N-{3-[(3-chloroanilino)carbonyl]phenyl}-3-nitrobenzamide]
- CC50 [1]: > 50 µM
- CC50 ([1]; Homo sapiens): ~33 µM
- CC50 [2]: 15.7 ± 0.8 µM
- CC50 ([2]; Homo sapiens, HL-60, 48 h): < 20 µM
- CC50 ([3]; Homo sapiens, U-937, 48 h): < 20 µM
- CC50 [3]: ~18 µM

Structure (SMILES): Cc1ccccc1CN(Cc1nnc(C(C)(C)C)o1)c1ccc2nc(O)[nH]c2c1 [G3iF]
- CC50 ([1]; Homo sapiens): > 100 µM
- CC50 ([2]; Homo sapiens, HL-60, 48 h): > 50 µM
- CC50 ([3]; Homo sapiens, U-937, 48 h): > 50 µM
